Consider two compounds from patent publication US11274106B2, “Topoisomerase inhibitors with antibacterial and anticancer activity” (THE BOARD OF TRUSTEES OF THE UNIVERSITY OF ILLINOIS, priority 2017, dated 2022).

Like-named read-outs stand apart in the source and are kept apart here.

The test system of assay [1] is MDA-MB-231 triple negative breast cancer cells. Put plainly: Antiproliferative SRB assay, MDA-MB-231. The class given is cell-based. The following applies: for IC50: SRB assay, mean ± SEM. As to the method:
FIG. 1. […] Cell death measured by SRB assay after 72 hour of compound exposure (n≥3 biological replicates, error bars show SEM). IC50 values given as mean±SEM from ≥3 biological replicates.
To investigate the feasibility of developing a class of antitumor antibiotics based upon the DNM scaffold, the ability of the DNM to exert an antiproliferative effect against MDA-MB-231 breast cancer cells was evaluated.

For assay [2], the target named is T1, Top1 (Homo sapiens, UniProt P11387).
T1 sequence (P11387 1-765): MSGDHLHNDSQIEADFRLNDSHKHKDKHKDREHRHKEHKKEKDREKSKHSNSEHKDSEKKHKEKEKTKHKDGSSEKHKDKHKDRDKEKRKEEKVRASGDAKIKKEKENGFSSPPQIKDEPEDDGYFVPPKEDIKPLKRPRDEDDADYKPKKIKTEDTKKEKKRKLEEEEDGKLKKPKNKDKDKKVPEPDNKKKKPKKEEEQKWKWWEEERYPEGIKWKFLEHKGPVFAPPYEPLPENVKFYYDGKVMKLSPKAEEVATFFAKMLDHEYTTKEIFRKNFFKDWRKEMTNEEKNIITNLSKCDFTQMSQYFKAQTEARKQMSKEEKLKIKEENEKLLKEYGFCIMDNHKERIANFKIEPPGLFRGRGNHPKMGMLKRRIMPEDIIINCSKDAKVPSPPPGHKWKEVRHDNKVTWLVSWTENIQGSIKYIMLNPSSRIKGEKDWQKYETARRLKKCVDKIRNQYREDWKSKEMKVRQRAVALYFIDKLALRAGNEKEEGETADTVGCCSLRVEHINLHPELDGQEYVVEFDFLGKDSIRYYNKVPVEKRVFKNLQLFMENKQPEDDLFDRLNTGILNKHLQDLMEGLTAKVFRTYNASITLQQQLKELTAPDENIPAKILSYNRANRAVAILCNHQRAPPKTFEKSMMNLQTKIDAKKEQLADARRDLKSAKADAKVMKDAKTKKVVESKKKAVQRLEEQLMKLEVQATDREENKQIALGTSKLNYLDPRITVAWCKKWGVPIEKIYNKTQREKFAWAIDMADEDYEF
Put plainly: Top1 degradation by Western blot, BT-474. The class given is cell-based. The following applies: 50 μM for 2, 4, and 6 hours, then 30-minute drug-free media. As to the method: FIG. 4. Level of Top1-degradation predicts cell line sensitivity. (a) Cells treated with 25 μM of compound for indicated times followed by a 30 minute incubation with drug-free media. Cells were lysed with RIPA and Top1 levels assessed by Western Blot. (b) Degradation of Top1 results in a right-ward shift in the dose-response curve. Effect is most pronounced in Top1-poisons (Ph-6DNM-NH3, CPT) than Top1 catalytic inhibitor (6DNM-Pyr). Cell death measured by SRB assay after 72 hour of compound exposure (n≥3 biological replicates, error bars show SEM).
This difference in mechanism of action between Ph-6DNM-NH3 and 6DNM-Pyr may provide an explanation of the differences in cell line sensitivities between the different DNM derivatives. […] This downregulation serves as a resistance mechanism and the level of Top1 degradation is correlated with reduced sensitivity to CPT. To determine if a similar mechanism is responsible for the reduced sensitivity to Ph-6DNM-NH3 and its derivatives in certain cell lines, the effects of Ph-6DNM-NH3 and 6DNM-Pyr were compared to that of CPT in […] and BT-474, two cancer cell lines known to be deficient and proficient in Top1 degradation, respectively. Cells were treated with 50 μM Ph-6DNM-NH3, 6DNM-Pyr, or CPT for 2, 4, and 6 hours. Following a 30-minute incubation with drug-free media to allow for the reversal of any Top1cc formed, cells were lysed and Top1 concentrations assessed by Western blot (FIG. 4a).

[3] abbreviates: Homo sapiens, MDA-MB-231, 72 h, Breast cancer, read-out: 72 hour IC50, MDA-MB-231.

Turning to `Cc1cc(=O)n2c3c(c4c(cc13)c1ccccc1c(=O)n4C)OCC2CN` (stereo not shown) [Compound 15], the IC50 in assay [1] (setting [3]) turned out to be 30 ± 6 nM; in assay [1] (72 hour compound exposure, read-out: MDA-MB-231 IC50), 48 ± 8 nM. For the same compound, in assay [1] (MDA-MB-231, Table 1), the “Improvement in potency relative to 6DNM-NH3” value is reported as 4.5 fold. Further, the “Top1 levels by Western blot in BT-474” value in assay [2] is recorded as “time-dependent decrease in the levels of Top1”.

As for `Cc1cc(=O)n(C)c2c3c4c(cc12)c(C)cc(=O)n4C(CN1CCCC1)CO3` (stereo not shown) [Compound 20], the IC50 in assay [1] (setting [3]) amounted to 14 ± 1 nM; in assay [1] (Homo sapiens, MDA-MB-231, 72 h, 72 hour compound exposure, read-out: MDA-MB-231 IC50), 14 ± 1 nM. The “Top1 levels by Western blot in BT-474” value in assay [2] was “minimal effect”.
